According to patent US20220125051A1, “PRE-HARVEST DESICCATION METHOD” (SYNGENTA CROP PROTECTION AG, priority 2019, published 2022):
Where “and” joins values, the source holds several entries; their conditions need not be identical. Equal entries are not always repeated.

Experiments:
Format in all cases: in vivo
[1] = tested on: Amaranthus palmeri (AMAPA); experiment: Post-emergence efficacy, Method C; settings: 400 g/Ha, evaluated at 21 days, 100=total damage to plant, 0=no damage
Experimental: (§1) An “instant formulation”, known as the IF50, containing 50 g/L of the “technical” (i.e. unformulated) active ingredient was prepared by dissolving the active ingredient in a mixture of organic solvents and emulsifier, details of which are provided in the table. This IF50 was then mixed with a small, variable amount of acetone to aid dissolution, before addition of a 1% v/v aqueous solution in water of the adjuvant Empicol ESC70 3EO (Sodium lauryl ether sulphate) and 1% v/v Ammonium sulphate, as the aqueous diluent, to form an aqueous spray solution which contains a predetermined concentration of the active ingredient (which varies depending on the application rate of the active ingredient to the plants).
(§2) The composition of the mixture of organic solvents and emulsifier used as a base for the instant formulation was as given above in Table IF.
(§3) This aqueous spray solution was then sprayed onto the plants after about 21 days of cultivation. The plants were grown from seeds sown in standard soil, placed in a glasshouse under controlled conditions (at 24/18° C., day/night; 14 hours light; 65% humidity). After spray application the plants were then grown on in a glasshouse under the same conditions and watered twice daily. The test was evaluated at 21 days (100=total damage to plant; 0=no damage to plant).
(§4) Ipomoea hederacea (IPOHE), Amaranthus palmeri (AMAPA), Lolium perenne (LOLPE), Eleusine indica (ELEIN), Echinochloa crus-gaffi (ECHCG), Conyza canadensis (ERICA)

[2] = tested on: Conyza canadensis (ERICA); experiment: Post-emergence efficacy, Method C; settings: 400 g/Ha, evaluated at 21 days, 100=total damage to plant, 0=no damage
Experimental: as §1, §2, §3, §4

[3] = tested on: Echinochloa crus-gaffi (ECHCG); experiment: Post-emergence efficacy, Method C; settings: 400 g/Ha, evaluated at 21 days, 100=total damage to plant, 0=no damage
Experimental: as §1, §2, §3, §4

Eleusine indica (ELEIN) [4] = experiment: Post-emergence efficacy, Method C; settings: 400 g/Ha, evaluated at 21 days, 100=total damage to plant, 0=no damage
Experimental: as §1, §2, §3, §4

[5] = tested on: Ipomoea hederacea (IPOHE); experiment: Post-emergence efficacy, Method C; settings: 400 g/Ha, evaluated at 21 days, 100=total damage to plant, 0=no damage
Experimental: as §1, §2, §3, §4

Lolium perenne (LOLPE) [6] = experiment: Post-emergence efficacy, Method C; settings: 400 g/Ha, evaluated at 21 days, 100=total damage to plant, 0=no damage
Experimental: as §1, §2, §3, §4

[7] = tested on: Amaranthus retroflexus (AMARE); experiment: Post-emergence efficacy, Method B; settings: read-out: Control of weed species after post-emergence application, AMARE
Experimental: (§5) An “instant formulation”, known as the IF50, containing 50 g/L of the “technical” (i.e. unformulated) active ingredient was prepared by dissolving the active ingredient in a mixture of organic solvents and emulsifier, details of which are provided in the table. This IF50 was then mixed with a small, variable amount of acetone to aid dissolution, before addition of an aqueous solution of 1% v/v ammonium sulphate+1% v/v Empicol ESC70 (Sodium lauryl ether sulphate) adjuvant, as the aqueous diluent, to form an aqueous spray solution which contains a predetermined concentration of the active ingredient (which varies depending on the application rate of the active ingredient to the plants).
(§6) This aqueous spray solution was then sprayed onto the plants, after about 12 days' cultivation. The plants were grown from seeds sown in standard soil, placed in a glasshouse under controlled conditions (at 24/18° C. or 20/16° C., day/night; 16 hours light; 65% humidity). After spray application the plants were then grown on in a glasshouse under the same conditions and watered twice daily. […] the test was evaluated (100=total damage to plant; 0=no damage to plant).
(§7) Ipomoea hederacea (IPOHE), Euphorbia heterophylla (EPHHL), Chenopodium album (CHEAL), Amaranthus retroflexus (AMARE), Lolium perenne (LOLPE), Digitaria sanguinalis (DIGSA), Eleusine indica (ELEIN), Echinochloa crus-galli (ECHCG), Setaria faberi (SETFA)

[8] = tested on: Chenopodium album (CHEAL); experiment: Post-emergence efficacy, Method B; settings: read-out: Control of weed species after post-emergence application, CHEAL
Experimental: as §5, §6, §7

[9] = tested on: Digitaria sanguinalis (DIGSA); experiment: Post-emergence efficacy, Method B; settings: read-out: Control of weed species after post-emergence application, DIGSA
Experimental: as §5, §6, §7

[10] = tested on: Echinochloa crus-galli (ECHCG); experiment: Post-emergence efficacy, Method B; settings: read-out: Control of weed species after post-emergence application, ECHCG
Experimental: as §5, §6, §7

Eleusine indica (ELEIN) [11] = experiment: Post-emergence efficacy, Method B; settings: read-out: Control of weed species after post-emergence application, ELEIN
Experimental: as §5, §6, §7

[12] = tested on: Euphorbia heterophylla (EPHHL); experiment: Post-emergence efficacy, Method B; settings: read-out: Control of weed species after post-emergence application, EPHHL
Experimental: as §5, §6, §7

[13] = tested on: Ipomoea hederacea (IPOHE); experiment: Post-emergence efficacy, Method B; settings: read-out: Control of weed species after post-emergence application, IPOHE
Experimental: as §5, §6, §7

Lolium perenne (LOLPE) [14] = experiment: Post-emergence efficacy, Method B; settings: read-out: Control of weed species after post-emergence application, LOLPE
Experimental: as §5, §6, §7

Setaria faberi (SETFA) = experiment: Post-emergence efficacy, Method B; settings: read-out: Control of weed species after post-emergence application, SETFA
Experimental: as §5, §6, §7

Brassica napus (BRSNN) = experiment: Pre-harvest desiccation of crop plants; settings: evaluated after 7 and 14 days (which not stated), 100=total damage to plant, 0=no damage; for Post-emergence dessication efficacy, BRSNN: Table E; for Post emergence dessication efficacy, BRSNN: Table F
Experimental: (§8) Seeds of a variety of test species were sown in standard loam based soil in pots. After cultivation from between 21 and 28 days (post-emergence) under controlled conditions in a glasshouse (at 24/16° C., day/night; 14 hours light; 65% humidity) for warm climate species and (at 20/16° C. day/night; 15 hours light; 65% humidity) for cool climate species.
(§9) The plants were sprayed with an aqueous spray solution derived from dissolving the technical active ingredient formula in a small amount of acetone and a special solvent and emulsifier mixture referred to as IF50 (11.12% Emulsogen EL360 TM+44.44% N-methylpyrrolidone+44.44% Dowanol DPM glycol ether), to create a 50 g/I solution which was then diluted to required concentration using a solution of 1% Empicol ESC70 (Sodium lauryl ether sulphate)+1% ammonium sulphate in water as diluent.
(§10) The delivery of the aqueous spray solution was via a laboratory track sprayer which delivered the aqueous spray composition at a rate of 200 litres per hectare, using a flat fan nozzle (Teejet 11002VS) and an application volume of 200 litre/ha (at 2 bar).
(§11) The test plants were then grown in a glasshouse under controlled conditions (at 24/16° C., day/night; 14 hours light; 65% humidity) for warm climate species and (at 20/16° C. day/night; 15 hours light; 65% humidity) for cool climate species and watered twice daily. After 7 and 14 days the test was evaluated (100=total damage to plant; 0=no damage to plant).
(§12) A value of n/t indicates not tested.
(§13) Glycine Max (GLXMA), Solanum turberosum (SOLTU), Gossypium hirsutum (GOSHI), Brassica napus (BRSNN), Helianthus annus (HELAN)

Glycine Max (GLXMA) = experiment: Pre-harvest desiccation of crop plants; settings: evaluated after 7 and 14 days (which not stated), 100=total damage to plant, 0=no damage; for Post-emergence dessication efficacy, GLXMA: Table E; for Post emergence dessication efficacy, GLXMA: Table F
Experimental: as §8, §9, §10, §11, §12, §13

[15] = tested on: Gossypium hirsutum (GOSHI); experiment: Pre-harvest desiccation of crop plants; settings: Table E, evaluated after 7 and 14 days (which not stated), 100=total damage to plant, 0=no damage
Experimental: as §8, §9, §10, §11, §12, §13

[16] = tested on: Solanum turberosum (SOLTU); experiment: Pre-harvest desiccation of crop plants; settings: Table E, evaluated after 7 and 14 days (which not stated), 100=total damage to plant, 0=no damage
Experimental: as §8, §9, §10, §11, §12, §13

Helianthus annus (HELAN) = experiment: Pre-harvest desiccation of crop plants; settings: Table F, evaluated after 7 and 14 days (which not stated), 100=total damage to plant, 0=no damage
Experimental: as §8, §9, §10, §11, §12, §13

SMILES | Control of weed species after post-emergence application, AMAPA [1] | Control of weed species after post-emergence application, ERICA [2] | Control of weed species after post-emergence application, ECHCG [3] | Control of weed species after post-emergence application, ELEIN (Eleusine indica (ELEIN) [4]) | Control of weed species after post-emergence application, IPOHE [5] | Control of weed species after post-emergence application, LOLPE (Lolium perenne (LOLPE) [6]) | pest or weed control at 1000 g/ha [7] [%] | pest or weed control at 1000 g/ha [8] [%] | pest or weed control at 1000 g/ha [9] [%] | pest or weed control at 1000 g/ha [10] [%] | pest or weed control at 1000 g/ha (Eleusine indica (ELEIN) [11]) [%] | pest or weed control at 1000 g/ha [12] [%] | pest or weed control at 1000 g/ha [13] [%] | pest or weed control at 1000 g/ha (Lolium perenne (LOLPE) [14]) [%] | pest or weed control at 1000 g/ha (Setaria faberi (SETFA)) [%] | other results
Cl.O=S(=O)([O-])CC[n+]1ccc(-c2ccncc2)cn1 [Compound A27] | 77 | 65 | 43 | 80 | 90 | 68 |  |  |  |  |  |  |  |  |  | 
O=C(O)CC[n+]1ccc(-c2ccncn2)cn1.[Cl-] [Compound A28] |  |  |  |  |  |  | 100 | 90 | 100 | 100 | 100 | 100 | 100 | 70 | 40 | Post-emergence dessication efficacy, BRSNN (Brassica napus (BRSNN); 150 g/Ha): 97; Post-emergence dessication efficacy, BRSNN (Brassica napus (BRSNN); 300 g/Ha): 100; Post-emergence dessication efficacy, BRSNN (Brassica napus (BRSNN); 600 g/Ha): 100; Post-emergence dessication efficacy, GLXMA (Glycine Max (GLXMA); 150 g/Ha): 93; Post-emergence dessication efficacy, GLXMA (Glycine Max (GLXMA); 300 g/Ha): 99; Post-emergence dessication efficacy, GLXMA (Glycine Max (GLXMA); 600 g/Ha): 99; Post-emergence dessication efficacy, GOSHI ([15]; 150 g/Ha): 100; Post-emergence dessication efficacy, GOSHI ([15]; 300 g/Ha): 100; Post-emergence dessication efficacy, GOSHI ([15]; 600 g/Ha): 100; Post-emergence dessication efficacy, SOLTU ([16]; 150 g/Ha): 100; Post-emergence dessication efficacy, SOLTU ([16]; 300 g/Ha): 100; Post-emergence dessication efficacy, SOLTU ([16]; 600 g/Ha): 100
O=S(=O)([O-])C[n+]1ccc(-c2ncccn2)cn1 [Compound A3, (4-pyrimidin-2-ylpyridazin-1-ium-1-yl)methanesulfonate] | 65 | 100 | 13 | 15 | 83 | 25 |  |  |  |  |  |  |  |  |  | 
O=C(O)CC[n+]1ccc(-c2cccnn2)cn1.[Cl-] [Compound A138, 3-(4-pyridazin-3-ylpyridazin-1-ium-1-yl)propanoic acid chloride] |  |  |  |  |  |  | 100 | 100 | 100 | 100 | 100 | 100 | 40 | 100 | 100 | Post emergence dessication efficacy, BRSNN (Brassica napus (BRSNN); 150 g/Ha): 63 and 98; Post emergence dessication efficacy, BRSNN (Brassica napus (BRSNN); 600 g/Ha): 96 and 100; Post emergence dessication efficacy, GLXMA (Glycine Max (GLXMA); 50 g/Ha): 57 and 37; Post emergence dessication efficacy, GLXMA (Glycine Max (GLXMA); 150 g/Ha): 67 and 72; Post emergence dessication efficacy, GLXMA (Glycine Max (GLXMA); 600 g/Ha): 82 and 90; Post emergence dessication efficacy, HELAN (Helianthus annus (HELAN); 50 g/Ha): 100; Post emergence dessication efficacy, HELAN (Helianthus annus (HELAN); 150 g/Ha): 100; Post emergence dessication efficacy, HELAN (Helianthus annus (HELAN); 600 g/Ha): 100
